Experimental data from ChEMBL document CHEMBL5620378, “Structure-based discovery of novel cruzain inhibitors with distinct trypanocidal activity profiles” (Eur J Med Chem, 2023).
One block for each compound: values may come before it. Activity calls are given as the source filed them. No cut-off for these calls is given here.

Legend:
[1] = biological target: Cruzipain (Trypanosoma cruzi) (UniProt P25779); test: Competitive inhibition of C-terminal truncated Trypanosoma cruzi Tulahuen Cruzain assessed as increase in Km(app) using Z-FR-AMC as substrate by Michaelis-menten based analysis
Trypanosoma cruzi [2] = test: Trypanocidal activity against epimastigotes form of Trypanosoma cruzi Y assessed as decrease in parasite growth at 25 uM measured after 72 hrs by optical microscopic analysis; format: functional
Cruzipain [3] = biological target: T1, Cruzipain (Trypanosoma cruzi, UniProt P25779); test: Inhibition of C-terminal truncated Trypanosoma cruzi Tulahuen Cruzain using Z-FR-AMC as substrate measured for 5 mins by fluorescence based analysis
Trypanosoma cruzi [4] = test: Trypanocidal activity against epimastigotes form of Trypanosoma cruzi Y assessed as decrease in parasite growth at 200 uM pretreated for 1 hr followed by drug wash-out and measured after 72 hrs by optical microscopic analysis; format: functional
[5] = biological target: Cruzipain (Trypanosoma cruzi) (UniProt P25779); test: Ratio of IC50 for inhibition of C-terminal truncated Trypanosoma cruzi Tulahuen Cruzain in presence of different concentrations of Triton to IC50 for inhibition of C-terminal truncated Trypanosoma cruzi Tulahuen Cruzain
Trypanosoma cruzi [6] = test: Trypanocidal activity against epimastigotes form of Trypanosoma cruzi Y assessed as parasite viability by MTT assay; format: functional, organism-based
Peritoneal macrophage [7] = test: Cytotoxicity against C57BL/6 mouse Peritoneal macrophages infected with Trypanosoma cruzi Y assessed as cell damage at 0.19 to 400 uM measured after 24 hrs by LDH assay; format: toxicity, cell-based; conditions: dose 0.19-400 µM
Peritoneal macrophage [8] = test: Effect on NO release in C57BL/6 mouse Peritoneal macrophages infected with Trypanosoma cruzi Y measured at 11 days post-infection by Griess reagent based assay; format: functional, cell-based; conditions: time 11.0 day
Cathepsin L = Cathepsin L (Homo sapiens, UniProt P07711); test: Inhibition of human recombinant Cathepsin L (18 to 333 residues) assessed as residual activity using Z-FR-AMC as substrate at 100 uM measured for 5 mins by fluorescence based analysis; conditions: recombinant human Cathepsin L (residues 18 to 333), probe Z-FR-AMC, read-out: Activity
Trypanosoma cruzi [9] = test: Trypanocidal activity against epimastigotes form of Trypanosoma cruzi Y assessed as decrease in parasite growth at 400 uM measured after 72 hrs by optical microscopic analysis; format: functional
Cruzipain [10] = biological target: T1, Cruzipain; test: Competitive inhibition of C-terminal truncated Trypanosoma cruzi Tulahuen Cruzain using Z-FR-AMC as substrate by Michaelis-menten based analysis
Trypanosoma cruzi [11] = test: Trypanocidal activity against Trypanosoma cruzi Y infected in C57BL/6 mouse Peritoneal macrophages assessed as reduction in trypomastigotes release at 6.25 uM measured on day 5 post-infection; format: functional; conditions: Peritoneal macrophage, 120 h, time 5 day
Trypanosoma cruzi [12] = test: Trypanocidal activity against Trypanosoma cruzi Y infected in C57BL/6 mouse Peritoneal macrophages assessed as reduction in trypomastigotes release at 100 uM measured on day 5 post-infection; format: functional; conditions: Peritoneal macrophage, 120 h, time 5 day
Trypanosoma cruzi [13] = test: Trypanocidal activity against trypomastigote form of Trypanosoma cruzi Y infected in C57BL/6 mouse Peritoneal macrophages assessed as reduction in intracellular parasite infection at 0.19 to 400 uM preincubated with parasite for 1 hr followed by infection and measured at 3 to 11 days post-infection; format: functional, organism-based; conditions: Peritoneal macrophage, dose 0.19-400 µM, time 3-11 day
Trypanosoma cruzi [14] = test: Trypanocidal activity against trypomastigote form of Trypanosoma cruzi Y assessed as reduction in parasite load at 6.25 uM incubated for 1 hr; format: functional
[15] = biological target: Cruzipain (Trypanosoma cruzi) (UniProt P25779); test: Inhibition of C-terminal truncated Trypanosoma cruzi Tulahuen Cruzain using Z-FR-AMC as substrate at 100 uM measured for 5 mins by fluorescence based analysis
[16] = biological target: Cruzipain (Trypanosoma cruzi) (UniProt P25779); test: Competitive inhibition of C-terminal truncated Trypanosoma cruzi Tulahuen Cruzain assessed as constant Vmax using Z-FR-AMC as substrate by Lineweaver-Burk plot analysis
Peritoneal macrophage [17] = test: Cytotoxicity against C57BL/6 mouse Peritoneal macrophages assessed as cell damage at 0.19 to 400 uM measured after 24 hrs by LDH assay; format: toxicity, cell-based; conditions: dose 0.19-400 µM
[18] = biological target: Cruzipain (Trypanosoma cruzi) (UniProt P25779); test: Ratio of IC50 for inhibition of C-terminal truncated Trypanosoma cruzi Tulahuen Cruzain in presence of 0% Triton and BSA to IC50 for inhibition of C-terminal truncated Trypanosoma cruzi Tulahuen Cruzain
[19] = biological target: Cruzipain (Trypanosoma cruzi) (UniProt P25779); test: Inhibition of C-terminal truncated Trypanosoma cruzi Tulahuen Cruzain using Z-FR-AMC as substrate at 100 uM preincubated with enzyme for 10 mins and measured for 5 mins by fluorescence based analysis; conditions: time 15.0 min

Chain of Cruzipain (Trypanosoma cruzi) (P25779 123-467 limits assumed): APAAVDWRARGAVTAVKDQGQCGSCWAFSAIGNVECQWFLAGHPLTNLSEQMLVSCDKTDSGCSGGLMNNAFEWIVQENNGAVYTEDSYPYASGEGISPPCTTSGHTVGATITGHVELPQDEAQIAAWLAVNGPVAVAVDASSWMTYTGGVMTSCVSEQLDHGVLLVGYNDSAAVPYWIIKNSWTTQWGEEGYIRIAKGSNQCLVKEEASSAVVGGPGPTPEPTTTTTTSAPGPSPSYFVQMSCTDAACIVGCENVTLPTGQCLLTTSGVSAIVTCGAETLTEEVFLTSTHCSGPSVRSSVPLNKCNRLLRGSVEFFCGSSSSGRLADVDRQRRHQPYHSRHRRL
T1 sequence (P25779 whole entry, the tested form may be a part): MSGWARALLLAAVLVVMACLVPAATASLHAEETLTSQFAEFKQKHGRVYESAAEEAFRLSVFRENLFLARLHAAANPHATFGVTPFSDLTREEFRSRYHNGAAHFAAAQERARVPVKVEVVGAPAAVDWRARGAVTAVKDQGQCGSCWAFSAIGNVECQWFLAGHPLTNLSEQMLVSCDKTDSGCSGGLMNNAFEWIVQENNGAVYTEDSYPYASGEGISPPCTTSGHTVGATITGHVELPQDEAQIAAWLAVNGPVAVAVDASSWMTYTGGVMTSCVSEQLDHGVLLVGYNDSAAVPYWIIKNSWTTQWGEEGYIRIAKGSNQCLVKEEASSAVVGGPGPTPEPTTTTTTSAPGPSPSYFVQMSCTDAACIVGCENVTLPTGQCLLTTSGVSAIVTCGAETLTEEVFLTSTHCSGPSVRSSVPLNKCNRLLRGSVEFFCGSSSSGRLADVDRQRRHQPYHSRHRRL
Chain of Cathepsin L (P07711 whole entry, the tested form may be a part): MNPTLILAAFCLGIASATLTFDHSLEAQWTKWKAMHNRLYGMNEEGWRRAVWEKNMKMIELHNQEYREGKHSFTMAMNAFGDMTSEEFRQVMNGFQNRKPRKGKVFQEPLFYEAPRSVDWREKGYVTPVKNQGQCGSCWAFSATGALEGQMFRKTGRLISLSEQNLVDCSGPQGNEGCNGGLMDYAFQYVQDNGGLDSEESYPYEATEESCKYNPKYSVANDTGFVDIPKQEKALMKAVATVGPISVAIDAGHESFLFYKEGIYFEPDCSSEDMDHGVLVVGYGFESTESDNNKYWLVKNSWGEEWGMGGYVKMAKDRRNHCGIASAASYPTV

- inhibition [1]: Active
- IC50 (Cruzipain [3]): 26 µM
- Ratio IC50 [5]: 6
- Ki (Cruzipain [10]): 27 µM
- inhibition [15]: 100%
- inhibition [16]: Active
- Ratio IC50 [18]: 10
SMILES: O=C(NCc1ccco1)C1Cc2c(F)cccc2CN1 (racemic)
- inhibition at 25 µM (Trypanosoma cruzi [2]): 6%
- inhibition at 200 µM (Trypanosoma cruzi [4]): 12%
- Activity (Trypanosoma cruzi [6]): inactive
- Activity (Peritoneal macrophage [7]): Non-Toxic
- Activity (Peritoneal macrophage [8]): inactive
- activity at 5 min, 100 µM (Cathepsin L): 65%
- inhibition at 400 µM (Trypanosoma cruzi [9]): 23%
- inhibition at 6.25 µM (Trypanosoma cruzi [11]): 51%
- inhibition at 100 µM (Trypanosoma cruzi [12]): 74%
- Activity (Trypanosoma cruzi [13]): Active
- inhibition at 6.25 µM (Trypanosoma cruzi [14]): 39%
- Activity (Peritoneal macrophage [17]): Non-Toxic

- inhibition [15]: 7%
SMILES: O=C(NCc1ccccn1)C1Cc2ccccc2CN1 (configuration not stated)

- inhibition [15]: 8%
SMILES: Cc1ccc(CNC(=O)[C@@H]2Cc3ccccc3CN2)o1

- inhibition [15]: 13%
SMILES: Cc1ccc(CNC(=O)C2Cc3ccc(F)cc3C(=O)O2)o1 (configuration not stated)

- inhibition [1]: Active
- IC50 (Cruzipain [3]): 3 µM
- inhibition [19]: 100%
- Ratio IC50 [5]: 3
- Ki (Cruzipain [10]): 4.6 µM
- inhibition [15]: 100%
- inhibition [16]: Active
- Ratio IC50 [18]: 7
SMILES: O=C(NCc1ccco1)C1Cc2ccccc2CN1 (racemic)
- inhibition at 25 µM (Trypanosoma cruzi [2]): 43%
- inhibition at 200 µM (Trypanosoma cruzi [4]): 20%
- Activity (Trypanosoma cruzi [6]): inactive
- Activity (Peritoneal macrophage [7]): Non-Toxic
- Activity (Peritoneal macrophage [8]): inactive
- activity at 5 min, 100 µM (Cathepsin L): 51%
- inhibition at 6.25 µM (Trypanosoma cruzi [11]): 18%
- inhibition at 100 µM (Trypanosoma cruzi [12]): 25%
- inhibition at 6.25 µM (Trypanosoma cruzi [14]): 13%
- Activity (Peritoneal macrophage [17]): Non-Toxic

- inhibition [15]: 4%
SMILES: Cc1ccc(CNC(=O)[C@H]2Cc3ccccc3CN2)o1

- inhibition [15]: 25%
SMILES: O=C(NCc1ccco1)[C@@H]1Cc2ccccc2CO1
